The values that follow are results of earlier work, collected in US7410699B2, “Finely particulate composite containing carbon compound encapsulated in a polymer micelle of a block copolymer” (Japan Science and Technology Agency, priority 2003, dated 2008).

Each structure is given as a SMILES string.

For the series the following is noted: Journal of Colloid and Interface Science, 263, (2003), 1-3.

With `c12c3c4c5c1c1c6c7c2c2c8c3c3c9c4c4c%10c5c5c1c1c6c6c%11c7c2c2c7c8c3c3c8c9c4c4c9c%10c5c5c1c1c6c6c%11c2c2c7c3c3c8c4c4c9c5c1c1c6c2c3c41` [fullerene], the “water-solubility (amount of solubilized fullerene)” value was 21.0 µg/mL.
